Laboratory results: the NIST ThermoML archive (doi:10.1016/j.jct.2010.04.020)
± gives the expanded uncertainty stated by the source.

Experiments:
[1] = Molar enthalpy of transition or fusion; settings: Crystal; DSC
[2] = for mass density: 101.33 kPa, Liquid, Vibrating tube method; for Triple point temperature: Crystal

With CCCC[n+]1cccc2ccccc21.O=S(=O)([N-]S(=O)(=O)C(F)(F)F)C(F)(F)F [1-butylquinolinium bis((trifluoromethyl)sulfonyl)amide] the “Molar enthalpy of transition or fusion” value [1] was 10.5 ± 0.287 kcal/mol, the mass density ([2]; 333.15 K) was 1416.26 ± 6.9 kg/m3 and the mass density ([2]; 343.15 K) was 1407.38 ± 6.8 kg/m3. For the same compound, the mass density ([2]; 353.15 K) was 1398.52 ± 6.8 kg/m3, the mass density ([2]; 363.15 K) was 1389.69 ± 6.7 kg/m3 and the Triple point temperature ([2]; DTA) was 329.12 ± 0.5 K. It also gave a Triple point temperature ([2]; visual observation) of 329.62 ± 1.1 K.
